In article PMC6687188, “Novel lactate dehydrogenase inhibitors with in vivo efficacy against Cryptosporidium parvum” (PLoS Pathogens, 2019):
Like-named read-outs stand apart in the source and are kept apart here.

Legend:
[1] = target: T1, recombinant CpLDH protein (Cryptosporidium parvum, UniProt Q9GT92, F198L/K295E/R251K); conditions: cited from earlier work
[2] = target: T1, recombinant CpLDH protein; conditions: value in parentheses; ref Zhang et al., 2015 [11]; cited from earlier work
[3] = target: T1, recombinant CpLDH protein; conditions: for Km: pyruvate/NADH: reduction reaction pH 7.5, lactate/NAD+: oxidation reaction pH 9.2, 25°C; for Kcat / Vmax: pyruvate/NADH: reduction reaction, lactate/NAD+: oxidation reaction
Experimental: The coding sequence of CpLDH was cloned from cDNA prepared from the AUCP-1 isolate of C. parvum, and the His-tagged CpLDH recombinant protein expressed in Escherichia coli, and purified in native form essentially as previously described. Briefly, cDNA was prepared from total RNA extracted from the AUCP-1 isolate of C. parvum, and the coding sequence of CpLDH (Genebank accession number AF274310.1) was PCR-amplified from the cDNA using the primer pair 5’-[…]-3’ (Forward, with the XhoI restriction site italicized and start codon in bold) and 5’-[…]-3’ (Reverse, with the BamHI site italicized and stop codon in bold). The PCR amplicon was cloned at the XhoI/BamHI site of the pET15b expression vector in-frame with the hexahistidine (His-tag) at the N-terminal and sequenced to confirm identity. The recombinant expression vector was transformed into protein expression E. coli BL21-CodonPlus-DE3-RIL (Stratagene). Transformed E. coli was cultured at 37°C in Luria broth medium (supplemented with 100 μg/ml ampicillin and 34 μg/ml chloramphenicol) to an A600 of 0.8 followed by addition of 1 mM isopropyl-β-D-thiogalactopyranoside to induce protein expression. The expression E. coli was harvested and lysed under native conditions by sonicating in lysis buffer (50 mM NaH2PO4, 300 mM NaCl, 10 mM Imidazole, pH 8.0) containing a 1x EDTA-free protease inhibitor cocktail, 600 units benzonase and 30 kU lysozyme (EMD Millipore). The lysate was clarified by centrifugation and the His-tagged recombinant protein purified under native conditions by nickel-affinity chromatography according to the manufacturer's instructions (Novagen). The wash buffer used contained 50 mM NaH2PO4, 300 mM NaCl and 20 mM Imidazole, pH 8.0, while the elution buffer was composed of 50 mM NaH2PO4, 300 mM NaCl, 250 mM Imidazole, pH 8.0. The eluate was dialyzed using a buffer containing 5 mM Hepes–KOH (pH 7.8) and 0.5 mM DTT. The purity of the recombinant protein was determined by SDS/PAGE, and the concentration measured using a Qubit 3.0 fluorometer (Life technologies). […] On the other hand, the catalytic activity of CpLDH recombinant protein for the oxidation of lactate to pyruvate was determined by measuring the change in optical density of a 100 μl reaction mixture containing 100 mM lactate, 1 mM NAD^+, 100 mM Tris, pH 9.2, with varying concentrations of CpLDH recombinant protein at 25°C. […] In all assays, reaction mixtures without recombinant CpLDH protein were included as negative controls. All assays were performed in triplicate and repeated at least thrice. The change in optical density was measured every 15 seconds for a total of 2 minutes using a Spectra Max 384 Plus plate reader (Molecular Devices) at a wave length of 340 nm.

[4] = test system: HCT-8 cells; experiment: Compound cytotoxicity assay (WST-1 cell proliferation reagent)
Experimental: (§1) A colorimetric assay using the cell proliferation reagent WST-1 (Roche, USA) for the quantification of cell viability was performed. […] When the cells were confluent, the old medium was replaced with fresh medium with or without varying concentrations of chemical compound. After 24 h of culture, 10 μl of the cell proliferation reagent WST-1, (for quantification of cell viability) was added to each well, mixed and the plates incubated for 1 h at 37 C with 5% CO2 in the dark. […] Three independent assays were performed and the dose–response curves of the means of triplicate assays were generated using GraphPad PRISM software to derive the half maximal inhibitory concentration (IC50) of compounds in HCT-8 cells.

[5] = target: T1, recombinant CpLDH protein
[6] = Compound cytotoxicity assay (WST-1 cell proliferation reagent); conditions: human
Experimental: as §1

Structure (SMILES): CCCc1c(O)c(O)c(C(=O)O)c2cc(Cc3ccccc3)c(C)cc12 [FX11]
- enzymatic activity of CpLDH (in words) [1]: able to inhibit

Structure (SMILES): CC(O)C(=O)O (stereo not shown) [Lactate, lactate]
- Kcat [2]: 0.66 s⁻¹
- Km [2]: 10800 µM
- Vmax [2]: 0.53 nmol⁻¹ µg⁻¹ min⁻¹
- Km [3]: 39600 µM
- Kcat [3]: 0.07 s⁻¹
- Vmax [3]: 0.04 nmol⁻¹ µg⁻¹ min⁻¹

Structure (SMILES): Cc1cc2c(C(C)C)c(O)c(O)c(C=O)c2c(O)c1-c1c(C)cc2c(C(C)C)c(O)c(O)c(C=O)c2c1O [gossypol]
- enzymatic activity of CpLDH (in words) [1]: able to inhibit

Structure (SMILES): CC(=O)C(=O)O [Pyruvate, pyruvate]
- Kcat [2]: 16.10 s⁻¹
- Km [2]: 427 µM
- Vmax [2]: 12.89 nmol⁻¹ µg⁻¹ min⁻¹
- Km for pyruvate lower than that for lactate [3]: at least 54 fold
- Vmax for pyruvate higher than that for lactate [3]: 123 fold
- Km [3]: 731 µM
- Kcat [3]: 8.42 s⁻¹
- Vmax [3]: 5.04 nmol⁻¹ µg⁻¹ min⁻¹

Structure (SMILES): Cc1cc2c(c3oc(C4(C)OC4C4OC4C)cc(=O)c13)C(=O)c1c(O)c(C3CC(C)(N(C)C)C(O)C(C)O3)cc(C3CC(N(C)C)C(O)C(C)O3)c1C2=O (stereo not shown) [NSC70929]
- IC50 [4]: 181 µM
- MEAN CpLDH INHIBITION (%) [5]: 13.50%

Structure (SMILES): O=C(CC(=O)C(F)(F)F)c1csc2ccccc12 [NSC80396]
- IC50 [4]: 91.9 µM
- MEAN CpLDH INHIBITION (%) [5]: -8.51%

Structure (SMILES): NC(=O)c1ccc[n+]([C@@H]2O[C@H](COP(=O)([O-])OP(=O)(O)OC[C@H]3O[C@@H](n4cnc5c(N)ncnc54)[C@H](O)[C@@H]3O)[C@@H](O)[C@H]2O)c1 [NAD^+]
- Kcat [2]: 0.70 s⁻¹
- Km [2]: 62 µM
- Vmax [2]: 0.56 nmol⁻¹ µg⁻¹ min⁻¹
- Km [3]: 56 µM
- Kcat [3]: 0.11 s⁻¹
- Vmax [3]: 0.07 nmol⁻¹ µg⁻¹ min⁻¹

Structure (SMILES): CN(C)C(=S)SSC(=S)N(C)C [NSC1771]
- IC50 at 24 h [6]: 110 µM

Structure (SMILES): [Cl][Cd][Cl] [NSC51148]
- IC50 [4]: 39.6 µM
- MEAN CpLDH INHIBITION (%) [5]: 64.58%

Structure (SMILES): CC1=C(CCC(=O)O)c2cc3nc(cc4[nH]c(cc4C)cc4[nH]c(cc1n2)cc4C)C(C)=C3CCC(=O)O [NSC18298]
- IC50 [4]: 81.9 µM
- MEAN CpLDH INHIBITION (%) [5]: 53.86%

Structure (SMILES): O=[N+]([O-])c1ccc2c(N=Nc3c(O)ccc4ccccc34)c(O)cc(S(=O)(=O)[O-])c2c1.[Na+] [NSC73413]
- IC50 [4]: 220 µM
- MEAN CpLDH INHIBITION (%) [5]: 54.98%

Structure (SMILES): NC(=O)C1=CN([C@@H]2O[C@H](COP(=O)(O)OP(=O)(O)OC[C@H]3O[C@@H](n4cnc5c(N)ncnc54)[C@H](O)[C@@H]3O)[C@@H](O)[C@H]2O)C=CC1 [NADH]
- Km [3]: 734 µM
- Vmax [3]: 6.29 nmol⁻¹ µg⁻¹ min⁻¹

Structure (SMILES): Cc1cc2c(C(C)C)c(O)c(O)c(C=O)c2c(O)c1-c1c(C)cc2c(C(C)C)c(O)c(O)c(C=O)c2c1O [NSC56817]
- IC50 at 24 h [6]: 64.2 µM

Structure (SMILES): CCOC(=O)Cc1c(C)c2cc(C(=O)c3ccccc3)c(O)cc2oc1=O [NSC115538]
- IC50 [4]: 158 µM
- MEAN CpLDH INHIBITION (%) [5]: 0.63%

Structure (SMILES): COc1ccc(/C=C/C(=O)Oc2cc(O)cc(O)c2)cc1 [NSC175296]
- IC50 [4]: 156 µM
- MEAN CpLDH INHIBITION (%) [5]: 0.00%
